Source: US10407725B2, “Methods of treating autoimmune conditions in patients with genetic variations in DcR3 or in a DcR3 network gene” (The Children's Hospital of Philadelphia, priority 2015, dated 2019)
d = 2'-deoxy (DNA); r = 2'-OH (RNA)

Key:
[1] = system: canonical pathway in MM cell lines and tumors; conditions: cited from earlier work
DcR3 = experiment: siRNA knockdown of DcR3 expression, immunoblot of whole cell lysates; format: cell-based, human; conditions: P (1/2) EBV cells, 100 nM siRNA, versus control siRNA; whole cell lysates 24, 48 and 72 hours post nucleofection
Description: The expression of DcR3 was reduced using siRNAs in the EBV transformed cell lines derived from control and IBD patients harboring risk variants in TNFRSF6B (A allele). Briefly, 3×10^6 cells were transfected with 100 nM DcR3 siRNA duplexes or with DcR3 non-silence control using Amaxa Nucleofector Kit and program T-20. The siRNA-transfected cells were incubated for 48 h after nucleofection and the degree of knockdown relative to introduction of control siRNA was confirmed by western blot using DcR3 mouse monoclonal antibody (Abgent) on whole cell lysates. The 21-mer siRNAs were synthesized by DHARMACON. The DcR3 siRNA sequences were as follows: sense sequence, 5′-GCC AGG CUC UUC CUC CCA UdTdT-3′ (SEQ ID NO: 1); antisense sequence, 5′-AUG GGA GGA AGA GCC UGG CdTdT-3′ (SEQ ID NO: 2). The non-silence control siRNA sequences were as follows: sense sequence, 5′-GCC CGC UUU CCC UCA GCA UdTdT-3′ (SEQ ID NO: 3); antisense sequence, 5′-AUG CUG AGG GAA AGC GGG C-3 (SEQ ID NO: 4).
(§1) Post 24, 48 and 72 hours of nucleofection, cells were harvested and whole cell lysates were evaluated for DcR3 expression by immunoblot analysis. […] Nucleofection had no adverse effect on cell viability (data not shown). In addition, cells nucleofected with control and DcR3 siRNA post 24 h were treated with sFasL and analysed for cell death using MTT Proliferation assay.

[2] = system: patient EBV cells with heterozygous risk allele (1/2); experiment: MTT proliferation assay of nucleofected cells treated with sFasL; format: cell-based, human; conditions: cells treated with sFasL 24 h post nucleofection; compared with control siRNA (CsiRNA) plus sFasL
Description: The effect of DcR3 on cell proliferation was measured by the colorimetric MTT assay using an MTT (Microtiter-tetrazolium, Sigma, USA) based assay. Briefly, the cells (5,000/ml) were incubated in triplicate in a 96-well plate (Costar, Cambridge, Mass., USA) in a final volume of 0.2 ml for the indicated times. Thereafter, 20 μl of MTT solution (5 g/L) was added to each well and then incubated for 12 h. After centrifugation, the supernatant was removed from each well. The colored formazan crystal produced from MTT was dissolved in 0.15 ml of DMSO and then the optical density (OD) value was measured on a microplate reader. Each experiment was performed in duplicate and repeated five times.
as §1

Row | Molecule | off-target effect on canonical NF-κB pathway [1] | DcR3 expression post nucleofection (DcR3) | cell growth (MTT) after sFasL treatment [2]
1 | CC(C)C[C@H](NC(=O)[C@H](Cc1ccccc1)NC(=O)c1cnccn1)B(O)O [Velcade bortezomib, bortezomib] | induce up-regulation of the canonical pathway |  | 
2 | DcR3 siRNA: 21-mer siRNA duplex, sense 5′-GCC AGG CUC UUC CUC CCA UdTdT-3′, antisense 5′-AUG GGA GGA AGA GCC UGG CdTdT-3′, synthesized by DHARMACON (sense GCCAGGCUCUUCCUCCCAUTT; antisense AUGGGAGGAAGAGCCUGGCTT; sugars from the 5' end r19 d2, backbone not given here) |  | reduced DcR3 levels first seen at 24 h and maintained for at least 48 h | decrease in cell growth
